Columns and labels:
[1] = target: HIV-1 RT-associated RNase H activity (Human immunodeficiency virus type 1 group M subtype B, UniProt P03366); test: Pre-steady-state single turnover RNase H reactions; type: biochemical; details: PFA 0-10 μM, dTMP-terminated primer
[2] = target: T1, HIV-1 RT-associated RNase H activity (polymerase-independent) (Human immunodeficiency virus type 1 group M subtype B, UniProt P03366); type: biochemical; details: PFA 200 μM; chimeric substrate PBS-14r8d, 0-40 min
[3] = target: T1, HIV-1 RT-associated RNase H activity (polymerase-independent); test: biochemical; details: IC50, primary cleavage, 600 nM chimeric hybrid labelled at 3' DNA end, 50 nM RT
[4] = tested on: p66^AzF/p51 RT; test: FRET-based RNase H assay; type: biochemical, HIV-1; details: azido function at position 501 (AzF)
[5] = target: p66^501BpF/p51 RT (Human immunodeficiency virus type 1, UniProt P03366, Y1100X); test: FRET-based RNase H assay; type: biochemical, HIV-1

SMILES	Position of RNase H cleavage with increasing ligand concentration [1]	Inhibition of polymerase-independent RNase H cleavage [2]	IC50 [3] [µM]	Effect of mutation on β-thujaplicinol sensitivity [4]	IC50 [5] [µM]
O=C(O)P(=O)(O)O [PFA, Phosphonoformic acid]	biased cleavage to position -19	does not inhibit RNase H cleavage			
CC(C)c1ccc(O)c(=O)c(O)c1 [β-thujaplicinol]			> 25	little to no effect	> 300

From article PMC4285699 (Journal of molecular biology, 2009)
